# Results: patent US20230337677A1, “ARYL AND PYRIDYL AMIDE PESTICIDES AND COMPOSITIONS THEREOF” (University of Florida Research Foundation, Incorporated, priority 2019, published 2023)
# Experiments:
# [1] = test system: Aedes aegypti strain Orlando (sensitive); assay: Topical toxicity (24 hour mortality), Ae. aegypti Orlando; assay type: in vivo; conditions: topical application, 24 h mortality, female adults, susceptible Orlando strain
# Procedure, shortened: (§1)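 Females aged 3–6 days received 200 nL of compound in ethanol topically on the thorax, 10 per concentration per replicate, and were kept at 28° C with sugar water.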
# [2] = test system: Aedes aegypti strain Puerto Rico (PR, resistant to permethrin); assay: Topical toxicity (24 hour mortality), Ae. aegypti Puerto Rico; assay type: in vivo; conditions: for Ae. aegypti RR (resistance ratio): 24 h LD50 resistant strain (PR)/24 h LD50 susceptible strain (OR); for Ae. aegypti PR LD50: topical application, 24 h mortality, female adults, permethrin-resistant Puerto Rico strain
# Description: (§2) The Aedes aegypti strains Orlando (sensitive) as well as the Puerto Rico (PR, resistant to permethrin) were used. The Anopheles gambiae (G3 sensitive strain, as well as Akron kdr (Akdr) strain, resistant to pyrethroids were also assessed. The larvae were provided by the USDA, Gainesville Fl, and raised in a pan with tap water maintained at 28° C. Larvae were fed a ground liver and yeast mixture, and pupae were placed in emergence cages. Adults were held at 28° C. and provided with cotton balls soaked in 10% sugar water for rearing and for all bioassays.
# (§3) Female adults from 3 to 6 days were used for the experiments. The drug was dissolved in ethanol and then applied with a micro-applicator on the thorax, between the legs: 200 nL of drug per female mosquito, with different concentrations of the drug; 10 mosquitos were treated together per concentration per replicate, and put together in a small container with free access to sweet water. Mortality, i.e. no visible movement, was assessed 24 hours after treatment. Every compound was assessed on at least 3 different cohorts of mosquitoes, and the LD50 values and slopes were determined with Probit analysis, corrected with Abbott's formula.
# [3] = test system: Anopheles gambiae G3 sensitive strain; assay: Topical toxicity (24 hour mortality), An. gambiae G3; assay type: in vivo; conditions: topical application, 24 h mortality, female adults, susceptible strain G3
# Procedure, shortened: as §1
# [4] = test system: Anopheles gambiae Akron kdr (Akdr) strain, resistant to pyrethroids; assay: Topical toxicity (24 hour mortality), An. gambiae Akdr; assay type: in vivo; conditions: for An. gambiae RR (resistance ratio): 24 h LD50 resistant strain (AKDR)/24 h LD50 susceptible strain (G3); for An. gambiae AKDR LD50: topical application, 24 h mortality, female adults, pyrethroid-resistant Akdr strain
# Description: as §2, §3
# [5] = test system: Aedes aegypti mosquitoes, insecticide-susceptible Orlando strain; assay type: in vivo; conditions: for 1 h % Repellency, 100 μg/cm^2: screened at 100 μg/cm^2, strain not given; for 1 h Repellency EC50, μg/cm^2: (OR); for vapor repellency / mortality, statement in words (Example 8): structure-activity analysis of Table 2
# Procedure, shortened: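 Sixteen female mosquitoes per glass tube facing netting-shielded filter paper treated with acetone solutions (30-0.01 μg/ml; screen at 100 μg/cm^2), no contact. Proportion on treated side scored up to 60 min, then flight-out checked 30 min; mortality after 24 hr constant exposure.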
# [6] = test system: Aedes aegypti mosquitoes, insecticide-susceptible Orlando strain; assay: whole plant or invertebrate; conditions: 24 h; for mortality at 100 µg/cm2: read-out: 24 h % Mortality, 100 μg/cm^2
# [7] = test system: Aedes aegypti mosquitoes, insecticide-susceptible Orlando strain; conditions: 24 h; LC50 (OR)
smiles,measurement,setting,value
O=C(Nc1cc(Cl)nc(C(F)(F)F)c1)C(F)(F)C(F)(F)C(F)(F)C(F)(F)C(F)(F)F [GMR055],Ae. aegypti OR LD50,[1],10.5 ng/mg
same,Ae. aegypti RR (resistance ratio),[2],0.6
same,Ae. aegypti PR LD50,[2],5.90 ng/mg
same,An. gambiae G3 LD50,[3],11.0 ng/mg
same,An. gambiae RR (resistance ratio),[4],0.4
same,An. gambiae AKDR LD50,[4],4.0 ng/mg
O=C(Nc1cc(Br)nc(Br)c1)C(F)(F)C(F)(F)C(F)(F)C(F)(F)C(F)(F)F [GMR056],Ae. aegypti OR LD50,[1],15 ng/mg
same,Ae. aegypti RR (resistance ratio),[2],0.8
same,Ae. aegypti PR LD50,[2],12.10 ng/mg
same,An. gambiae G3 LD50,[3],8.6 ng/mg
same,An. gambiae RR (resistance ratio),[4],0.4
same,An. gambiae AKDR LD50,[4],3.2 ng/mg
O=C(Nc1c(F)c(F)nc(F)c1F)C(F)(F)C(F)(F)C(F)(F)C(F)(F)C(F)(F)F [GMR057],Ae. aegypti OR LD50,[1],20 ng/mg
same,Ae. aegypti RR (resistance ratio),[2],0.4
same,Ae. aegypti PR LD50,[2],8.90 ng/mg
same,An. gambiae G3 LD50,[3],28.4 ng/mg
same,An. gambiae RR (resistance ratio),[4],0.6
same,An. gambiae AKDR LD50,[4],15.7 ng/mg
O=C(Nc1ccnc(Br)c1)C(F)(F)C(F)(F)C(F)(F)C(F)(F)C(F)(F)F [GMR069],"1 h % Repellency, 100 μg/cm^2",[5]; 1 h,−12%
same,Ae. aegypti OR LD50,[1],2261 ng/mg
same,An. gambiae AKDR LD50,[4],3425 ng/mg
same,mortality at 100 µg/cm2,[6],13%
O=C(Nc1cc(C(F)(F)F)ccn1)C(F)(F)C(F)(F)C(F)(F)F [GMR085],"1 h Repellency EC50, μg/cm^2",[5]; 1 h,49 μg/cm^2
same,"1 h % Repellency, 100 μg/cm^2",[5]; 1 h,70%
same,Ae. aegypti OR LD50,[1],>6000 ng/mg
same,An. gambiae G3 LD50,[3],>100 ng/mg
same,An. gambiae AKDR LD50,[4],>50 ng/mg
same,mortality at 100 µg/cm2,[6],13%
O=C(OCc1c(F)c(F)cc(F)c1F)C(F)(F)C(F)(F)C(F)(F)F [GMR090],"1 h % Repellency, 100 μg/cm^2",[5]; 1 h,−12%
same,Ae. aegypti OR LD50,[1],>1000 ng/mg
same,An. gambiae G3 LD50,[3],>100 ng/mg
same,An. gambiae AKDR LD50,[4],>100 ng/mg
same,mortality at 100 µg/cm2,[6],9%
CN(C(=O)C(F)(F)C(F)(F)C(F)(F)F)c1cc(Cl)nc(Cl)c1 [GMR095],"1 h Repellency EC50, μg/cm^2",[5]; 1 h,10 μg/cm^2
same,"1 h % Repellency, 100 μg/cm^2",[5]; 1 h,84%
same,Ae. aegypti OR LD50,[1],1576 ng/mg
same,An. gambiae G3 LD50,[3],1300.00 ng/mg
same,An. gambiae RR (resistance ratio),[4],0.6
same,An. gambiae AKDR LD50,[4],775.00 ng/mg
same,"24 h LC50, μg/cm^2",[7],14 μg/cm^2
same,mortality at 100 µg/cm2,[6],100%
O=C(Nc1cc(Cl)cc(Cl)c1)C(F)(F)C(F)(F)OC(F)(F)F [GMR099],"1 h % Repellency, 100 μg/cm^2",[5]; 1 h,74%
same,Ae. aegypti OR LD50,[1],3279 ng/mg
same,An. gambiae G3 LD50,[3],>1000 ng/mg
same,An. gambiae AKDR LD50,[4],>1000 ng/mg
same,mortality at 100 µg/cm2,[6],81%
O=C(Nc1cc(F)c(F)c(F)c1)C(F)(F)C(F)(F)OC(F)(F)F [GMR100],"1 h Repellency EC50, μg/cm^2",[5]; 1 h,3 μg/cm^2
same,knockdown in 1 hr repellency test (XXkd),"[5]; screened at 10 μg/cm^2, 1 h, out of 16 females",10
same,Ae. aegypti OR LD50,[1],2374 ng/mg
same,An. gambiae G3 LD50,[3],>1000 ng/mg
same,An. gambiae AKDR LD50,[4],>1000 ng/mg
same,"24 h LC50, μg/cm^2",[7],15 μg/cm^2
same,mortality at 10 µg/cm2,[6]; read-out: 24 h % Mortality,21%
N#CC(F)(F)C(=O)Nc1cc(F)c(F)c(F)c1 [GMR102],"1 h Repellency EC50, μg/cm^2",[5]; 1 h,28 μg/cm^2
same,"1 h % Repellency, 100 μg/cm^2",[5]; 1 h,74%
same,"vapor repellency / mortality, statement in words (Example 8)",[5],moderate repellency and toxicity
same,Ae. aegypti OR LD50,[1],2164 ng/mg
same,An. gambiae G3 LD50,[3],>100 ng/mg
same,An. gambiae AKDR LD50,[4],>100 ng/mg
same,mortality at 100 µg/cm2,[6],22%
O/N=C(\Nc1cc(Cl)nc(Cl)c1)C(F)(F)C(F)(F)C(F)(F)F [GMR104],"1 h % Repellency, 100 μg/cm^2",[5]; 1 h,12%
same,Ae. aegypti OR LD50,[1],393 ng/mg
same,An. gambiae G3 LD50,[3],>100 ng/mg
same,mortality at 100 µg/cm2,[6],0%
O=C(NCc1cc(Cl)nc(Cl)c1)C(F)(F)C(F)(F)C(F)(F)F [GMR107],"1 h % Repellency, 100 μg/cm^2",[5]; 1 h,50%
same,Ae. aegypti OR LD50,[1],2173 ng/mg
same,mortality at 100 µg/cm2,[6],0%
"O=C(Nc1c(Cl)cc(C(F)(F)F)cc1Cl)C(F)(F)C(F)(F)F [GMR138, N-(2,6-dichloro-4-(trifluoromethyl)phenyl)-2,2,3,3,3-pentafluoropropanamide]","1 h Repellency EC50, μg/cm^2",[5]; 1 h,5.3 μg/cm^2
same,"1 h % Repellency, 100 μg/cm^2",[5]; 1 h,66%
same,Ae. aegypti OR LD50,[1],57.6 ng/mg
same,An. gambiae G3 LD50,[3],120.00 ng/mg
same,An. gambiae RR (resistance ratio),[4],0.8
same,An. gambiae AKDR LD50,[4],90.00 ng/mg
same,"24 h LC50, μg/cm^2",[7],0.3 μg/cm^2
same,mortality at 100 µg/cm2,[6],100%
CC(C(=O)Nc1cc(F)c(F)c(F)c1)(C(F)(F)F)C(F)(F)F [GMR139],"1 h Repellency EC50, μg/cm^2",[5]; 1 h,6.9 μg/cm^2
same,"1 h % Repellency, 100 μg/cm^2",[5]; 1 h,24%
same,"vapor repellency / mortality, statement in words (Example 8)",[5],reduced repellency
same,"24 h LC50, μg/cm^2",[7],16.6 μg/cm^2
same,mortality at 100 µg/cm2,[6],100%
O=C(Nc1c(Cl)cc(C(F)(F)F)cc1Cl)C(F)(F)F [GMR149],"1 h % Repellency, 100 μg/cm^2",[5]; 1 h,44%
same,Ae. aegypti OR LD50,[1],251 ng/mg
same,mortality at 100 µg/cm2,[6],81%
CC(C)(C)OC(=O)N(C(=O)C(F)(F)C(F)(F)F)c1c(Cl)cc(C(F)(F)F)cc1Cl [GMR150],knockdown in 1 hr repellency test (XXkd = number of insects incapacitated out of 16 females),"[5]; 100 μg/cm^2, 1 h, out of 16 females",11
same,Ae. aegypti OR LD50,[1],629 ng/mg
same,"24 h LC50, μg/cm^2",[7],12 μg/cm^2
same,mortality at 100 µg/cm2,[6],100%
CC(C)(C)OC(=O)N(C(=O)C(F)(F)F)c1c(Cl)cc(C(F)(F)F)cc1Cl [GMR151],"1 h % Repellency, 100 μg/cm^2",[5]; 1 h,32%
same,Ae. aegypti OR LD50,[1],>5000 ng/mg
same,mortality at 100 µg/cm2,[6],0%
CC(=O)N(C(C)=O)c1cccc(OC(F)(F)F)c1 [GMR159],"1 h % Repellency, 100 μg/cm^2",[5]; 1 h,−26%
same,An. gambiae G3 LD50,[3],>1000 ng/mg
same,An. gambiae AKDR LD50,[4],~1000 ng/mg
same,mortality at 100 µg/cm2,[6],19%
CCC(=O)N(C(=O)CC)c1cccc(OC(F)(F)F)c1 [GMR161],"1 h Repellency EC50, μg/cm^2",[5]; 1 h,36 μg/cm^2
same,"1 h % Repellency, 100 μg/cm^2",[5]; 1 h,74%
same,"24 h LC50, μg/cm^2",[7],52 μg/cm^2
same,mortality at 100 µg/cm2,[6],72%
O=C(CCl)Nc1ccccc1C(F)(F)F [MTFI-2-1A],"1 h Repellency EC50, μg/cm^2",[5]; 1 h,14 μg/cm^2
same,"1 h % Repellency, 100 μg/cm^2",[5]; 1 h,94%
same,"24 h LC50, μg/cm^2",[7],14 μg/cm^2
same,mortality at 100 µg/cm2,[6],100%
O=C(CBr)Nc1ccccc1C(F)(F)F [MTFI-5-5E],"1 h % Repellency, 100 μg/cm^2",[5]; 1 h,62%
same,mortality at 100 µg/cm2,[6],60%
O=C(CC1CC1)Nc1cccc(C(F)(F)F)c1 [MTFI-5-6C],"1 h % Repellency, 100 μg/cm^2",[5]; 1 h,50%
same,mortality at 100 µg/cm2,[6],0%
CCCCC(=O)Nc1ccccc1CCCC [MTFI-5-8A],"1 h % Repellency, 100 μg/cm^2",[5]; 1 h,38%
same,mortality at 100 µg/cm2,[6],6%
CCCCC(=O)Nc1ccccc1OC(F)(F)F [MTFI-5-8B],"1 h Repellency EC50, μg/cm^2",[5]; 1 h,11 μg/cm^2
same,"1 h % Repellency, 100 μg/cm^2",[5]; 1 h,96%
same,mortality at 100 µg/cm2,[6],13%
O=S(=O)(Nc1c(Cl)cc(C(F)(F)F)cc1Cl)C(F)(F)F [MTFI-5-10A],"1 h % Repellency, 100 μg/cm^2",[5]; 1 h,0%
same,mortality at 100 µg/cm2,[6],0%
